# According to ChEMBL document CHEMBL3886705, “Cyanomethylpyrazole carboxamides as janus kinase inhibitors” (2016):
# Values joined by “and” are separate entries in the source; they are usually repeats but may differ in a detail not shown here. Identical values can stand only once.
# Key:
# [1] = biological target: Tyrosine-protein kinase JAK2 (Homo sapiens, UniProt O60674)
# [2] = biological target: Tyrosine-protein kinase JAK1 (Homo sapiens, UniProt P23458); experiment: Subsequent reagent additions employed an Agilent Bravo.
# Tyrosine-protein kinase JAK1, sequence (P23458 whole entry): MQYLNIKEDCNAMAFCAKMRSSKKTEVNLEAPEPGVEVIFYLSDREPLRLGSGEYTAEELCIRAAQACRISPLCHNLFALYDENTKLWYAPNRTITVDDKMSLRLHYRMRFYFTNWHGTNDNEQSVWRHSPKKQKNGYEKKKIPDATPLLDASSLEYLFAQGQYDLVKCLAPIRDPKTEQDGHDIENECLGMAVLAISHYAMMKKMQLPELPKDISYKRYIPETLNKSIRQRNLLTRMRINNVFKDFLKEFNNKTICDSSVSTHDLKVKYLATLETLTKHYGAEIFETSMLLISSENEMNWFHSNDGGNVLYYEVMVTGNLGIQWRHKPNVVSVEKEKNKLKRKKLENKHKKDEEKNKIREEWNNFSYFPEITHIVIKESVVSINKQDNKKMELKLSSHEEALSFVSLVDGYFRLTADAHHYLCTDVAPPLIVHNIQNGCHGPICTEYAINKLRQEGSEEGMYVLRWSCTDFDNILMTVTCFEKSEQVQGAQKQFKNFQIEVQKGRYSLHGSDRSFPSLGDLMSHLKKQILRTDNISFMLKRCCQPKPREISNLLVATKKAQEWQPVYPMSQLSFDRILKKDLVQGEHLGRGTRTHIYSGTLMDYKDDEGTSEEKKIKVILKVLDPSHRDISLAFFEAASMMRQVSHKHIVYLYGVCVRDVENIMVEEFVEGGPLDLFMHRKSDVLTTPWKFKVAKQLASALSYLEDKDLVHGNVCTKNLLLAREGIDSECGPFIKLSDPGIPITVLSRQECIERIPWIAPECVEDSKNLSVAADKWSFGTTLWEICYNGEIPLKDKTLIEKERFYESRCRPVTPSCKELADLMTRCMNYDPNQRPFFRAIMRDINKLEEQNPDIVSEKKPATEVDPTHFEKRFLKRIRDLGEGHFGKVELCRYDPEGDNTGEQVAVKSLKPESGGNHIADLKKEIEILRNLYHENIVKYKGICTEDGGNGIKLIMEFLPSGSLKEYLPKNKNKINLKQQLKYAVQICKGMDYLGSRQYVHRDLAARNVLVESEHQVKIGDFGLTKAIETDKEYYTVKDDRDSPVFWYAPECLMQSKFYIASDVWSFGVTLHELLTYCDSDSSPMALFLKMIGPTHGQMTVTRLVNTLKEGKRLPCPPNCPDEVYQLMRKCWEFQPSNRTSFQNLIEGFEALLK
# Tyrosine-protein kinase JAK2, sequence (O60674 whole entry): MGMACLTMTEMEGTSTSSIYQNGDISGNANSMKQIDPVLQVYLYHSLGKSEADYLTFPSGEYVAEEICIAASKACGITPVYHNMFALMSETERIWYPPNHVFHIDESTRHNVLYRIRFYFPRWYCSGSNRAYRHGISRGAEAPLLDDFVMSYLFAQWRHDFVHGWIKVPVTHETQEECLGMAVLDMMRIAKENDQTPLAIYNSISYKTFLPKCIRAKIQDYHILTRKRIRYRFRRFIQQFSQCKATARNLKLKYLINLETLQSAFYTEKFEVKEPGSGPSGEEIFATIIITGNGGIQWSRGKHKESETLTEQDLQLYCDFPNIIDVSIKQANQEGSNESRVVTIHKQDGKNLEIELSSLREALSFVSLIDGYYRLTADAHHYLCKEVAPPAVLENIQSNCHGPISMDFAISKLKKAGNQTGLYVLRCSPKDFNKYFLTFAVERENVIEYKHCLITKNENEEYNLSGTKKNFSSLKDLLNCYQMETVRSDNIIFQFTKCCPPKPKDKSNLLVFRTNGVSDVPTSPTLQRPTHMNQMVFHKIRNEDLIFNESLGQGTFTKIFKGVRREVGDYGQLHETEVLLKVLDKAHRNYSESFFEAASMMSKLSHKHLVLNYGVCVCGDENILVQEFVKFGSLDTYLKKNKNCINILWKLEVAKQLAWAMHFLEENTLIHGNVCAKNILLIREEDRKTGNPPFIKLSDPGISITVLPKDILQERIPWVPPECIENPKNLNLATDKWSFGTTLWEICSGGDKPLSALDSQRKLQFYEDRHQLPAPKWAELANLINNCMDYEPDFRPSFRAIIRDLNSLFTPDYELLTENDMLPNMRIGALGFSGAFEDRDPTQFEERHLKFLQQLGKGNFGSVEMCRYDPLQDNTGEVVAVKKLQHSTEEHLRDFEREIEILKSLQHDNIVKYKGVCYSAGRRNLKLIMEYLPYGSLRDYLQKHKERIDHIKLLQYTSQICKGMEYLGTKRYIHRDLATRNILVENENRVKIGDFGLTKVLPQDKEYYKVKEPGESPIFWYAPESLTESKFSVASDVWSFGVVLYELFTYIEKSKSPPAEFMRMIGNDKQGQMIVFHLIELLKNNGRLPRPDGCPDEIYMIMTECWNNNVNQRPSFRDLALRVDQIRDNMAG
compound,measurement,setting,value
CC(C)(C)OC(=O)N1CCC(CC#N)(n2cc(C(N)=O)c(Nc3cc(Cl)nc(Cl)c3)n2)CC1,IC50,[1],33 nM
same,IC50,[2],1 nM
CN(C)C(=O)c1ccc(Nc2nn(C3(CC#N)CCN(C(=O)OC(C)(C)C)CC3)cc2C(N)=O)cc1,IC50,[1],2 nM
same,IC50,[2],0.7 nM
N#CCC1(n2cc(C(N)=O)c(Nc3ccnc(F)c3)n2)CCC(N)CC1 (stereo not given),IC50,[1],> 1500 nM and 161 nM
